{"source": "patent US20190175551A1", "about": "“MEDICINE FOR TREATING RENAL DISEASE” (Daiichi Sankyo Company, Limited, priority 2016, published 2019)", "key": {"[1]": {"tested_on": "DOCA/sodium chloride-loaded hypertension model", "assay": "Ameliorative effect on a renal disorder in the DOCA/sodium chloride-loaded hypertension model (kidney histopathology)", "assay_type": "in vivo, male WKY rats", "settings": "for Glomerulosclerosis score / Tubular disorder score, Cortical side / Tubular disorder score, Medullary side: 15 weeks old, score 0 to 4, mean±standard error, n=6", "procedure": "Deoxycorticosterone acetate (DOCA)/sodium chloride-loaded hypertension model was prepared by the following procedure. 6 Week-old male WKY rats (WKY/Izm, SPF grade, produced by Funabashi Farm Co., Ltd.) were subjected to unilateral nephrectomy, diet containing 4% sodium chloride (4% NaCl-containing FR-2, manufactured by Funabashi Farm Co., Ltd.) was given from 7 weeks old by free feeding, and DOCA was administered subcutaneously once a week. DOCA was suspended in a 0.5% carboxymethylcellulose solution (20 mg/mL) and administered in an amount corresponding to 1 mL/kg. The group to which DOCA was not administered was designated as DOCA non-administration group and the group to which DOCA was administered was designated as DOCA administration group.\nAt 11 weeks old, some of the animals in the DOCA non-administration group were dissected and the other animals in the DOCA non-administration group were designated as normal group (Group 1). At the same time, some of the animals in the DOCA administration group were also dissected, and the others of the DOCA administration group were divided into the following groups (Groups 2 to 4).\nGroup 1: normal group, n=6 animals\nGroup 2; control group, n=6 animals\nGroup 3; compound (Ia) administration group [compound (Ia) 3 mg/kg], n=6 animals\nGroup 4: DOCA administration interruption+compound (Ia) administration group [compound (Ia) 3 mg/kg], n=6 animals\nThe dosing schedule of test drugs for each group after 11 weeks is as follows.\nTo Group 1, oral administration of a 0.5% methylcellulose solution was continued for 4 weeks. To Group 2, oral administration of 0.5% methylcellulose solution and subcutaneous administration (once a week) of DOCA were continued for 4 weeks. To Group 3, oral administration of compound (Ia) suspended in 0.5% methylcellulose solution (2 mL/kg) and subcutaneous administration (once a week) of DOCA were continued for 4 weeks.\nTo Group 4, only oral administration of compound (Ia) suspended in 0.5% methylcellulose solution (2 mL/kg) was continued for 4 weeks.\nAt the end of 4 weeks of administration of the test drug or the like (at the age of 15 weeks old), all animals were dissected.\nAt 7, 11, 13 and 15 weeks old, 24-hour urine collections were conducted using metabolic cages (2100-R, Watanabe Isolator Systems Co., Ltd.). Daily urinary protein excretion was calculated from the urine protein concentration (measured by BiOLiS 24i premium [Tokyo Boeki Medisys Inc.]) and urine volume.\nAt the time of dissection at 11 and 15 weeks old, the kidneys were isolated and weighed, and the kidney weight per body weight was calculated.\nFurthermore, histopathological sections were prepared from a part of the isolated kidneys, and histopathological evaluation (scoring of glomerulosclerosis and tubular disorder) was conducted. For glomerulosclerosis, 30 glomeruli were selected at random for each sample, and the degree of glomerulosclerosis of each sample was quantified on the basis of 5 stages (0 to 4) to determine an average value of 30 values, which was used as a score of the sample (Uehara Y, et al., Hypertens. Res. 1992; 15, pp 17-26). For tubular disorder, for each of the cortical and medullary sides, 10 fields of view were selected for each sample, the degree of tubular disorder was quantified on the basis of 5 stages (0 to 4) to determine the average value of values for each 10 fields of view, which was used as a score of the sample (Uehara Y, et al., Hypertens. Res. 1992; 15, pp 17-26). Results are shown in Table 3 (each numerical value in the table represents the mean±standard error)."}, "[2]": {"tested_on": "patients with type 2 diabetes mellitus having albumin urine", "assay": "Phase II randomized, placebo controlled, double-blind clinical study of compound (Ia) (Example 3)", "assay_type": "in vivo, human", "settings": "for Reduction rate of UACR (geometric mean) from baseline at the end of dosing / Remission rate of UACR: 12 weeks; for Remission rate of UACR: UACR <30 mg/g Cr at 11 and 12 weeks and decreased by 30% or more", "procedure": "A clinical study targeted to patients with type 2 diabetes mellitus having albumin urine was conducted to evaluate the efficacy and safety of the like of compound\n(Ia). This study is a Phase II randomized, placebo controlled, double-blind comparison study. Each of the patients was subjected to a washout period of 4 to 12 weeks followed by treatment comprising administrating placebo or compound (Ia) (0.625 mg, 1.25 mg, 2.5 mg, 5 mg) once a day over a treatment period of 12 weeks.\n365 Patients in Japan who met the following criteria entered this study, and an efficacy and safety analysis set included 358 cases.\n1. The patient is with type 2 diabetes mellitus; 2. The patient is 20 years old or more at the time of consent; 3. Urine albumin/creatinine ratio (UACR) is 45 mg/g Cr or more and less than 300 mg/g Cr; 4. Estimated glomerular filtration rate calculated with serum creatinine (eGFRcreat) is 30 mL/min/1.73 m^2 or more; and 5. The patient has been subjected to treatment with an angiotensin-converting enzyme inhibitor or an angiotensin II receptor antagonist (and optionally a calcium antagonist) since at least 3 months before the start of treatment.\nThe patient was followed up for approximately 6 weeks after the end of dosing, and evaluated for change in UACR from baseline, remission rate of UACR and numerical value of eGFR as well as safety.\nRemission rate of UACR (%)=(number of subjects in remission÷number of all subjects to be analyzed)×100"}, "[3]": {"settings": "Group 3: 3 mg/kg oral for 4 weeks with continued DOCA"}, "[4]": {"settings": "Group 4: DOCA administration interruption + 3 mg/kg oral for 4 weeks"}}}
{"smiles": "Cc1c(C(=O)Nc2ccc(S(C)(=O)=O)cc2)cn(CCO)c1-c1ccccc1C(F)(F)F", "note": "(atropisomer, axis not shown) [compound (Ia), (S)-1-(2-hydroxyethyl)-4-methyl-N-[4-(methylsulfonyl)phenyl]-5-[2-(trifluoromethyl)phenyl]-1H-pyrrole-3-carboxamide]", "values": [{"measurement": "Effect on renal disorders (proteinuria, renal hypertrophy, glomerulosclerosis and tubular disorder)", "setting": "[1]; 3 mg/kg oral for 4 weeks, disease model animals", "result": "excellent ameliorative effect"}, {"measurement": "Glomerulosclerosis score", "setting": "[1]; [3]", "result": "0.29 ± 0.05"}, {"measurement": "Tubular disorder score, Cortical side", "setting": "[1]; [3]", "result": "1.02 ± 0.07"}, {"measurement": "Tubular disorder score, Medullary side", "setting": "[1]; [3]", "result": "1.73 ± 0.04"}, {"measurement": "Effect on renal disorders versus normal group", "setting": "[1]; [4]", "result": "ameliorated almost to the normal group level"}, {"measurement": "Glomerulosclerosis score", "setting": "[1]; [4]", "result": "0.20 ± 0.04"}, {"measurement": "Tubular disorder score, Cortical side", "setting": "[1]; [4]", "result": "0.67 ± 0.06"}, {"measurement": "Tubular disorder score, Medullary side", "setting": "[1]; [4]", "result": "1.42 ± 0.11"}, {"measurement": "Reduction rate of UACR (geometric mean) from baseline at the end of dosing", "setting": "[2]; 0.625 mg once a day", "result": 21, "unit": "%"}, {"measurement": "Remission rate of UACR", "setting": "[2]; 0.625 mg once a day", "result": 7.5, "unit": "%"}, {"measurement": "Reduction rate of UACR (geometric mean) from baseline at the end of dosing", "setting": "[2]; 1.25 mg once a day", "result": 37, "unit": "%"}, {"measurement": "Remission rate of UACR", "setting": "[2]; 1.25 mg once a day", "result": 12.3, "unit": "%"}, {"measurement": "Reduction rate of UACR (geometric mean) from baseline at the end of dosing", "setting": "[2]; 2.5 mg once a day", "result": 50, "unit": "%"}, {"measurement": "Remission rate of UACR", "setting": "[2]; 2.5 mg once a day", "result": 21.2, "unit": "%"}, {"measurement": "Reduction rate of UACR (geometric mean) from baseline at the end of dosing", "setting": "[2]; 5 mg once a day", "result": 56, "unit": "%"}, {"measurement": "Remission rate of UACR", "setting": "[2]; 5 mg once a day", "result": 21.1, "unit": "%"}, {"measurement": "Therapeutic effect (UACR reducing effect and increase in remission rate)", "setting": "[2]; patients without sufficient effect on ACE inhibitor or angiotensin II receptor antagonist (optionally calcium antagonist)", "result": "excellent therapeutic effect"}]}
